Measurements published in the kinase profiling compilation of Christmann-Franck et al. (2016).

Legend:
Assay in all cases: KINOMEscan competition binding
[1] = target: JAK2 JH1 catalytic (human) (UniProt O60674); settings: compound 1.0 µM
MAPK11 (human) = MAPK11 (human) (UniProt Q15759); settings: compound 1.0 µM
[2] = target: TYK2 JH1 catalytic (human) (UniProt P29597); settings: compound 1.0 µM
TXK (human) = TXK (human) (UniProt P42681); settings: compound 1.0 µM
MAPK1 (human) = MAPK1 (human) (UniProt P28482); settings: compound 1.0 µM
MYLK2 (human) = MYLK2 (human) (UniProt Q9H1R3); settings: compound 1.0 µM
AKT3 (human) = AKT3 (human) (UniProt Q9Y243); settings: compound 1.0 µM
FGFR1 (human) = FGFR1 (human) (UniProt P11362); settings: compound 1.0 µM
CPK1 (P.falciparum) = settings: compound 1.0 µM
ALK (human) = ALK (human) (UniProt Q9UM73); settings: compound 1.0 µM
CDK18 (human) = CDK18 (human) (UniProt Q07002); settings: compound 1.0 µM
LYN (human) = LYN (human) (UniProt P07948); settings: compound 1.0 µM
PRPF4B (human) = PRPF4B (human) (UniProt Q13523); settings: compound 1.0 µM
MAP3K6 (human) = MAP3K6 (human) (UniProt O95382); settings: compound 1.0 µM
ERBB2 (human) = ERBB2 (human) (UniProt P04626); settings: for kinase still bound, per cent of control: compound 1.0 µM
ERBB2 (human), sequence (P04626 whole entry, looked up): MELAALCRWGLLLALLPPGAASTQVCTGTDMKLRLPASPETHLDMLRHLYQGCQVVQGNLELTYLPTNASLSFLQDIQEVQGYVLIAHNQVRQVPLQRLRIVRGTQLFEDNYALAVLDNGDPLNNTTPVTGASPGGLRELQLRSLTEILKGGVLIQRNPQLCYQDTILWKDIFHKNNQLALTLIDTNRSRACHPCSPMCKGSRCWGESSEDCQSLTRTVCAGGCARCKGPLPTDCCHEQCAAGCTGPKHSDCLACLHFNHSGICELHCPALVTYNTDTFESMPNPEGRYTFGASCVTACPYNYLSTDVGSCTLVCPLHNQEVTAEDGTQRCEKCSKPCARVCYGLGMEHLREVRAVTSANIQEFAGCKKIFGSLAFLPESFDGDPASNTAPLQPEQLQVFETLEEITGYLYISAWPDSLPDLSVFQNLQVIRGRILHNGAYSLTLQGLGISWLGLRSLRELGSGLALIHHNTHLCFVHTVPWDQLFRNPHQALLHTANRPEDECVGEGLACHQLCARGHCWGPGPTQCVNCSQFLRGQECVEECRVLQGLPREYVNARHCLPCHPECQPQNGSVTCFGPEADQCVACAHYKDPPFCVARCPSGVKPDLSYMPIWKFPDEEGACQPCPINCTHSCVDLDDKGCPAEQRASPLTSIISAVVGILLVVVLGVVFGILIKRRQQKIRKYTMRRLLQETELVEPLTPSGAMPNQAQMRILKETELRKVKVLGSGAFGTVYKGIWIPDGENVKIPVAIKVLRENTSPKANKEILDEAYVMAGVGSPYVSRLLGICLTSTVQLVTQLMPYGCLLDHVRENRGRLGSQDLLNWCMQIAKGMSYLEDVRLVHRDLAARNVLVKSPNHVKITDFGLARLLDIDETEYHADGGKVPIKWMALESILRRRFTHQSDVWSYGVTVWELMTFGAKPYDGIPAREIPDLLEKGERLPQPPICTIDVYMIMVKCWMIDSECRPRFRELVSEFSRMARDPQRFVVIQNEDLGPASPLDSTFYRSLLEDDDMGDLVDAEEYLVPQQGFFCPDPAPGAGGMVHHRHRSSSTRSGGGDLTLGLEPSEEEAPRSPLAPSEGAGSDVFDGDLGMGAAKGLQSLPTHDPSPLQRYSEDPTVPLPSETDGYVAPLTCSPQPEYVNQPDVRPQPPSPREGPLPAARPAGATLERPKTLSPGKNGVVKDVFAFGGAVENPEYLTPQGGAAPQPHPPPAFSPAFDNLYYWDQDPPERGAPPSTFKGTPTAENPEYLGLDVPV

[3] = tested on: FLT3 (human), P36888 [D835H]; settings: compound 1.0 µM
PIP4K2C (human) = PIP4K2C (human) (UniProt Q8TBX8); settings: for kinase still bound, per cent of control: compound 1.0 µM
PIP4K2C (human), sequence (Q8TBX8 whole entry, looked up): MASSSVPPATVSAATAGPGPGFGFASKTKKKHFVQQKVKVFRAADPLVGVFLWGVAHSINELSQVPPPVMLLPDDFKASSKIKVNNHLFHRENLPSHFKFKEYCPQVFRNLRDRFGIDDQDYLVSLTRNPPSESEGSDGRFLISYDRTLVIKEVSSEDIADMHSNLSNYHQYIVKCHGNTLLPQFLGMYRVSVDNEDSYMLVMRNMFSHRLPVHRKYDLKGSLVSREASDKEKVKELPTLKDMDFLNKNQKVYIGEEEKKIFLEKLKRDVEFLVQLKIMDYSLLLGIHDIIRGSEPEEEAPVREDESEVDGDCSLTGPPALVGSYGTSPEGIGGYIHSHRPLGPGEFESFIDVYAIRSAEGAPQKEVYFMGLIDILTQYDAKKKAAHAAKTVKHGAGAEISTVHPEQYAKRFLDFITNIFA

IRAK4 (human) = IRAK4 (human) (UniProt Q9NWZ3); settings: compound 1.0 µM
NIM1 (human) = NIM1 (human) (UniProt Q8IY84); settings: compound 1.0 µM
CDK5 (human) = CDK5 (human) (UniProt Q00535); settings: compound 1.0 µM
CSK (human) = CSK (human) (UniProt P41240); settings: compound 1.0 µM
CDKL3 (human) = CDKL3 (human) (UniProt Q8IVW4); settings: compound 1.0 µM
LATS2 (human) = LATS2 (human) (UniProt Q9NRM7); settings: compound 1.0 µM
[4] = tested on: PIK3CA (human), P42336 [I800L]; settings: compound 1.0 µM
PIK3CA (human), P42336 [I800L], sequence (P42336 whole entry I800L, looked up): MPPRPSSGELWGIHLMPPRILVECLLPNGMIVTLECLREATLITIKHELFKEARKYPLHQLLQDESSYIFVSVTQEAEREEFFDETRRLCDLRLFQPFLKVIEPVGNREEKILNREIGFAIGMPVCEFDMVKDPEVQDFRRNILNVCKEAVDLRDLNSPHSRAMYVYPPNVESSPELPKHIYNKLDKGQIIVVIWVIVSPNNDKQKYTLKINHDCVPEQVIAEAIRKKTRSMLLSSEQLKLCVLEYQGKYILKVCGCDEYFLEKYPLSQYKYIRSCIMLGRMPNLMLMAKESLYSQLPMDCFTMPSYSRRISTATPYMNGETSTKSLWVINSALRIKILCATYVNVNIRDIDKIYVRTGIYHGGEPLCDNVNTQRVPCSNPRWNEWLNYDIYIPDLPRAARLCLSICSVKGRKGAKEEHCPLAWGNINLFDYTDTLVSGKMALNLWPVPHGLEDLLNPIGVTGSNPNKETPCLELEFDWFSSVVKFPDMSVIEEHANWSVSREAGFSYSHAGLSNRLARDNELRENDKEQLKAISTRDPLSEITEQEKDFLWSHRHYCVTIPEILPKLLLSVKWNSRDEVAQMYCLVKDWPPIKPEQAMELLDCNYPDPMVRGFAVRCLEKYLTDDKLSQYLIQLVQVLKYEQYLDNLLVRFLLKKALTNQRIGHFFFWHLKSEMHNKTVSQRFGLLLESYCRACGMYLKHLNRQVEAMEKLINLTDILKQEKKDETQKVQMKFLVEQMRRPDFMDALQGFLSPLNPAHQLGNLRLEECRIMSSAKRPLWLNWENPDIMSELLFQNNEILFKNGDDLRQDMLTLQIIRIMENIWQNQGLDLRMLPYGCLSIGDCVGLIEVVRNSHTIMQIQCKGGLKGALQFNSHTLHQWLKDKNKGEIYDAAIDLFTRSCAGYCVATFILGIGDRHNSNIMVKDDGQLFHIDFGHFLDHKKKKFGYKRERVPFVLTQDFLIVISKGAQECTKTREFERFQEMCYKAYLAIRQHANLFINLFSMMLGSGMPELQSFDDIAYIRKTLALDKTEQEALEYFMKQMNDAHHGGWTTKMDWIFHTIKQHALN

KDR (human) = KDR (human) (UniProt P35968); settings: compound 1.0 µM
GSK3A (human) = GSK3A (human) (UniProt P49840); settings: compound 1.0 µM
[5] = tested on: EGFR (human), P00533 [752-759 del]; settings: compound 1.0 µM
CDC2L2 (human) = CDC2L2 (human) (UniProt Q9UQ88); settings: compound 1.0 µM
ULK1 (human) = ULK1 (human) (UniProt O75385); settings: compound 1.0 µM
ULK1 (human), sequence (O75385 whole entry, looked up): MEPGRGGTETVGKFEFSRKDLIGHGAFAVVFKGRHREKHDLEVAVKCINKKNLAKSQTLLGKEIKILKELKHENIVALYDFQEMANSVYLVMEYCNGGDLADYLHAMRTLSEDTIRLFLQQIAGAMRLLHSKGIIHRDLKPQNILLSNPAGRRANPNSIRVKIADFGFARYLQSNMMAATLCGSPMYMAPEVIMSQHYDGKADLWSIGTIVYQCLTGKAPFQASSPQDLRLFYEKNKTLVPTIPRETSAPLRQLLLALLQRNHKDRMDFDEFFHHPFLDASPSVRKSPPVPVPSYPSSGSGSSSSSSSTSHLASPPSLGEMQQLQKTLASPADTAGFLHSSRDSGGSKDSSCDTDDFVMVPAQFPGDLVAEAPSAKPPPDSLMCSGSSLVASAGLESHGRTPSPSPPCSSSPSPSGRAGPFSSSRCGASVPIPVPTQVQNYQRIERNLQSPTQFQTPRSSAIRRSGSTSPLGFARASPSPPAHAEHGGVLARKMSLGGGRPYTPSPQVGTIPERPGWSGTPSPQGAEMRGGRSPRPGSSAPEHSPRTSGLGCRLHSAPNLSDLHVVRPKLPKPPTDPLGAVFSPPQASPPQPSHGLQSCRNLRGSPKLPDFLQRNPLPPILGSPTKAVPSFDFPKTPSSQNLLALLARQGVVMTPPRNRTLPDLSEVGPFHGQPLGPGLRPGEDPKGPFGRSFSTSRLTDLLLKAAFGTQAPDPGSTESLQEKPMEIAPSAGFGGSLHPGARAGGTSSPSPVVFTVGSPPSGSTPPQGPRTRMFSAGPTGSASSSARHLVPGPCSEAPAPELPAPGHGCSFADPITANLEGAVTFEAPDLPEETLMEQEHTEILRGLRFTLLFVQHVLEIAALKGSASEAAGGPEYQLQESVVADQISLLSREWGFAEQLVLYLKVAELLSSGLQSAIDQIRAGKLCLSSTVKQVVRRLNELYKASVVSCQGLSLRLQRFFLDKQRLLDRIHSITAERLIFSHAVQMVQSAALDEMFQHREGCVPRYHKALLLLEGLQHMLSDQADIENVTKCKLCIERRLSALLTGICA

MAP4K2 (human) = MAP4K2 (human) (UniProt Q12851); settings: compound 1.0 µM
PTK2 (human) = PTK2 (human) (UniProt Q05397); settings: compound 1.0 µM
ICK (human) = ICK (human) (UniProt Q9UPZ9); settings: for kinase still bound, per cent of control: compound 1.0 µM
ICK (human), sequence (Q9UPZ9 whole entry, looked up): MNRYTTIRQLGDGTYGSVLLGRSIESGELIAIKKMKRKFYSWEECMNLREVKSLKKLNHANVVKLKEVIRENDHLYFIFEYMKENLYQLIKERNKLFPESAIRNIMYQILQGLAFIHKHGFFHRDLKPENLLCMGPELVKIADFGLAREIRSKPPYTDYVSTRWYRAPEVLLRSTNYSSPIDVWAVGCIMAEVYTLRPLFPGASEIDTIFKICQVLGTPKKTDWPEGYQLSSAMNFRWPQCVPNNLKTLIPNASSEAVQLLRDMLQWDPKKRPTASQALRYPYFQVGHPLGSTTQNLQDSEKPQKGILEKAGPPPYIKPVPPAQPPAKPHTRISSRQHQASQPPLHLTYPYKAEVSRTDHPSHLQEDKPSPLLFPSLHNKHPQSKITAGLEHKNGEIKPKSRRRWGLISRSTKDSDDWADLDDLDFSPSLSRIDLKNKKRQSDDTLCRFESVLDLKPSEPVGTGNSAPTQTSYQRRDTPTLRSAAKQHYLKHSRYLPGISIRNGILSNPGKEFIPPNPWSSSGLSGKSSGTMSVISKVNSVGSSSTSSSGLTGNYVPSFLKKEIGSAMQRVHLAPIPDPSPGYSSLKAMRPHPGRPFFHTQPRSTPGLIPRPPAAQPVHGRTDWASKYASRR

TSSK1B (human) = TSSK1B (human) (UniProt Q9BXA7); settings: compound 1.0 µM
FLT4 (human) = FLT4 (human) (UniProt P35916); settings: compound 1.0 µM
LIMK2 (human) = LIMK2 (human) (UniProt P53671); settings: compound 1.0 µM
RPS6KA4 KD1 (human) = RPS6KA4 KD1 (human) (UniProt O75676); settings: compound 1.0 µM
[6] = tested on: BRAF (human), P15056 [V600E]; settings: compound 1.0 µM
RPS6KA5 KD2 (human) = RPS6KA5 KD2 (human) (UniProt O75582); settings: compound 1.0 µM
HIPK2 (human) = HIPK2 (human) (UniProt Q9H2X6); settings: compound 1.0 µM
[7] = tested on: EGFR (human), P00533 [746-750 del]; settings: compound 1.0 µM
TAOK2 (human) = TAOK2 (human) (UniProt Q9UL54); settings: compound 1.0 µM
EPHA8 (human) = EPHA8 (human) (UniProt P29322); settings: compound 1.0 µM

TXK (human), sequence (P42681 whole entry, looked up): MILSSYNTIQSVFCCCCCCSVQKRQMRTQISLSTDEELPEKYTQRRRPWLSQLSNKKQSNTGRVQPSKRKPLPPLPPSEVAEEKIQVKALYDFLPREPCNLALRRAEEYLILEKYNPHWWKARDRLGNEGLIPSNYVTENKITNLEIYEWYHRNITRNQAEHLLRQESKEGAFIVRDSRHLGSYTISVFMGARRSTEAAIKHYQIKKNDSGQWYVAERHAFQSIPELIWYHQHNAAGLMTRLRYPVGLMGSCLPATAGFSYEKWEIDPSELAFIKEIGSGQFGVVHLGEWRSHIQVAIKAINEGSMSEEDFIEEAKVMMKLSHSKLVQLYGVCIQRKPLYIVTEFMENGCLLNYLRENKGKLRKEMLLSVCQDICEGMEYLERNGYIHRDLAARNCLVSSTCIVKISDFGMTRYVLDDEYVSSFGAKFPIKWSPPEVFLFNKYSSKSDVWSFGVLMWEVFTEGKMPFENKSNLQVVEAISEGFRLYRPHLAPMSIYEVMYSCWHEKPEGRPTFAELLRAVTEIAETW

CN(C)C/C=C/C(=O)Nc1cccc(C(=O)Nc2ccc(Nc3nccc(-c4c(-c5ccccc5)nn5ccccc45)n3)cc2)c1
kinase still bound, per cent of control [1]: 100%
kinase still bound, per cent of control (MAPK11 (human)): 6.6%
kinase still bound, per cent of control [2]: 76%
kinase still bound, per cent of control (TXK (human)): 24%
kinase still bound, per cent of control (MAPK1 (human)): 100%
kinase still bound, per cent of control (MYLK2 (human)): 100%
kinase still bound, per cent of control (AKT3 (human)): 80%
kinase still bound, per cent of control (FGFR1 (human)): 80%
kinase still bound, per cent of control (CPK1 (P.falciparum)): 0.6%
kinase still bound, per cent of control (ALK (human)): 100%
kinase still bound, per cent of control (CDK18 (human)): 95%
kinase still bound, per cent of control (LYN (human)): 58%
kinase still bound, per cent of control (PRPF4B (human)): 100%
kinase still bound, per cent of control (MAP3K6 (human)): 100%
Kd (ERBB2 (human)): 0.23 µM
kinase still bound, per cent of control (ERBB2 (human)): 0.4%
kinase still bound, per cent of control [3]: 13%
kinase still bound, per cent of control (PIP4K2C (human)): 86%
kinase still bound, per cent of control (IRAK4 (human)): 84%
kinase still bound, per cent of control (NIM1 (human)): 100%
kinase still bound, per cent of control (CDK5 (human)): 100%
kinase still bound, per cent of control (CSK (human)): 89%
kinase still bound, per cent of control (CDKL3 (human)): 100%
kinase still bound, per cent of control (LATS2 (human)): 78%
kinase still bound, per cent of control [4]: 77%
kinase still bound, per cent of control (KDR (human)): 17%
kinase still bound, per cent of control (GSK3A (human)): 38%
kinase still bound, per cent of control [5]: 7.8%
kinase still bound, per cent of control (CDC2L2 (human)): 32%
kinase still bound, per cent of control (ULK1 (human)): 87%
kinase still bound, per cent of control (MAP4K2 (human)): 90%
kinase still bound, per cent of control (PTK2 (human)): 95%
kinase still bound, per cent of control (ICK (human)): 100%
kinase still bound, per cent of control (TSSK1B (human)): 86%
kinase still bound, per cent of control (FLT4 (human)): 7.8%
kinase still bound, per cent of control (LIMK2 (human)): 100%
kinase still bound, per cent of control (RPS6KA4 KD1 (human)): 88%
kinase still bound, per cent of control [6]: 21%
kinase still bound, per cent of control (RPS6KA5 KD2 (human)): 97%
kinase still bound, per cent of control (HIPK2 (human)): 97%
kinase still bound, per cent of control [7]: 0%
kinase still bound, per cent of control (TAOK2 (human)): 31%
kinase still bound, per cent of control (EPHA8 (human)): 39%

CN(C)C/C=C/C(=O)Nc1cccc(C(=O)Nc2ccc(Nc3nccc(-c4cccnc4)n3)cc2)c1
kinase still bound, per cent of control [1]: 50%
kinase still bound, per cent of control (MAPK11 (human)): 95%
kinase still bound, per cent of control [2]: 16%
kinase still bound, per cent of control (TXK (human)): 83%
kinase still bound, per cent of control (MAPK1 (human)): 100%
kinase still bound, per cent of control (MYLK2 (human)): 35%
kinase still bound, per cent of control (AKT3 (human)): 100%
kinase still bound, per cent of control (FGFR1 (human)): 90%
kinase still bound, per cent of control (CPK1 (P.falciparum)): 77%
kinase still bound, per cent of control (ALK (human)): 100%
kinase still bound, per cent of control (CDK18 (human)): 100%
kinase still bound, per cent of control (LYN (human)): 86%
kinase still bound, per cent of control (PRPF4B (human)): 93%
kinase still bound, per cent of control (MAP3K6 (human)): 100%
kinase still bound, per cent of control (ERBB2 (human)): 92%
kinase still bound, per cent of control [3]: 29%
Kd (PIP4K2C (human)): 0.032 µM
kinase still bound, per cent of control (PIP4K2C (human)): 3.3%
kinase still bound, per cent of control (IRAK4 (human)): 100%
kinase still bound, per cent of control (NIM1 (human)): 100%
kinase still bound, per cent of control (CDK5 (human)): 89%
kinase still bound, per cent of control (CSK (human)): 97%
kinase still bound, per cent of control (CDKL3 (human)): 41%
kinase still bound, per cent of control (LATS2 (human)): 73%
kinase still bound, per cent of control [4]: 98%
kinase still bound, per cent of control (KDR (human)): 100%
kinase still bound, per cent of control (GSK3A (human)): 65%
kinase still bound, per cent of control [5]: 81%
kinase still bound, per cent of control (CDC2L2 (human)): 74%
kinase still bound, per cent of control (ULK1 (human)): 100%
kinase still bound, per cent of control (MAP4K2 (human)): 9.9%
kinase still bound, per cent of control (PTK2 (human)): 100%
Kd (ICK (human)): 0.054 µM
kinase still bound, per cent of control (ICK (human)): 3.4%
kinase still bound, per cent of control (TSSK1B (human)): 100%
kinase still bound, per cent of control (FLT4 (human)): 95%
kinase still bound, per cent of control (LIMK2 (human)): 82%
kinase still bound, per cent of control (RPS6KA4 KD1 (human)): 82%
kinase still bound, per cent of control [6]: 60%
kinase still bound, per cent of control (RPS6KA5 KD2 (human)): 100%
kinase still bound, per cent of control (HIPK2 (human)): 9.2%
kinase still bound, per cent of control [7]: 88%
kinase still bound, per cent of control (TAOK2 (human)): 54%
kinase still bound, per cent of control (EPHA8 (human)): 90%
